The values below come from patent US6583127B1, “Use of etherlysophospholipids as antiinflammatory agents” (Inkeysa. SA, priority 1998, dated 2003).

In assay [1] the test system is PGE2 synthesis in human mucosal gastric biopsies. Nature of the assay: Ex vivo PGE2 synthesis in human mucosal gastric biopsies. As to the method: The ability of the gastric mucosa to generate prostaglandins estimates total cyclooxygenase (COX) activity (COX-1 plus any COX-2). To measure ex vivo prostaglandin E2 (PGE2) synthesis, normal gastric mucosal biopsies were immediately placed in Ependorff tubes containing phosphate-buffered saline (PBS). […] Each mucosal gastric biopsy was cut into different pieces (about 1 mg weight) that were subsequently weighed and incubated in the absence or in the presence of the distinct agents indicated in the corresponding Table for 20 min at 37° C. in 200 μl Hepes-glucose buffer. Then cells were mucosal gastric samples were pelleted by centrifugation, lysed and intracellular PGE2 was measured using an enzyme immunoassay kit (Amersham Pharmacia Biotech, Buckinghamshire, UK) following the manufacturer's instructions. Prostaglandin synthesis is expressed as picograms of PGE2 synthesised per mg of tissue incubation. Each experiment corresponded to the use of one biopsy, in order to avoid variability among different biopsies. Normal volunteers without a previous pharmacological treatment were selected for these assays. The normal gastroduodenal mucosa was visually assessed by endoscopy.
Human mucosal gastric biopsies were cut into about 1 mg pieces, incubated with the indicted agents (10 μM) for 20 min at 37° C. in Hepes-glucose buffer, and then the intracellular content of PGE2 was determined as described in the Methods section. Untreated control samples were run in parallel. Data are shown as mean Values+S.D. from three independent experiments.

Assay [2] has as its system bentonite-induced skin edema in mice. Put plainly: Bentonite-induced skin edema in mice. The class given is in vivo. The conditions noted are these: mice, 2 mg/kg orally daily for 21 days. From the text:
Mice were individually identified with an ear code and were kept in groups of 6 per cage (Makrolon: 47.6×22.7×14.5 cm). Each cage was individually labelled with the n^o. of the study, type of treatment, doses used and route of administration, as well as the name of the director of the study, number and gender of contained animals, date of arrival and of the beginning of the experiment.
The animals had free access to mouse standard chow (UAR A04C; Usine d'Alimentation Rationelle, 91360-Villemoisson sur Orge, Francia; lot nos. 70520 and 70722). Drinking water access was ad libitum. The water, supplied by the Compañia de Aguas de Sabadell, S.A., is routinely analysed for the presence of possible contaminants. The temperature in the animal rooms was 22±3° C., with sporadic peaks of 26° C.; air humidity was 60±10%, with sporadic peaks of 80%. Daily light (between 7:00 h and 19:00 h) and dark phases were installed automatically.
Upon arrival, all animals were allowed to rest in the facilities for 8 days before use in the experiment. Table 2 indicates the six random groups of 10 mice each were set for experimentation.
The diameter of both hind pads of all mice was measured at day 0 and set as the basal value. Edema was then induced by injecting s.c. 13.3 mg/ml bentonite in 0.03 ml PBS into the right food pad. The corresponding mice were given daily the different compounds orally for 21 days. The inflamed control group was given 0.2 ml PBS only. The diameter of hind pads, as well as the body weight, was then measured every other day.
In each experimental group the average value, the standard deviation (SD) and the standard error was determined for the two parameters studied (hind pad diameter and body weight). The factor variance analysis (FVA) was used to compare the values obtained in the different groups. Where statistically significant differences were observed, the Duncan-Kramer test for a p<0.05 was applied.
The area below the curves corresponding to the diameters of the right and left pads was calculated and the evolution of the difference between them were plotted (FIGS. 7 and 8). The anti-inflammatory capacity of the different substances was evaluated as the extent of inhibition of the inflammatory process that was calculated with the formula [formula]
where C is the area below the inflammed control group and T the area below the different treatment groups.

Assay [3] has as its system PGE2 production in murine fibroblasts 3T3. Put plainly: PGE2 measurement in 3T3 cells (enzyme immunoassay). It is filed as cell-based, Mouse. The protocol: Cell culture. Human promyelocytic HL-60 cells and promonocytic U937 cells were grown in RPMI-1640 culture medium supplemented with 10% (v/v) heat-inactivated fetal calf serum, 2 mM L-glutamine, 100 units/ml penicillin and 24 μg/ml gentamicin. Mouse 3T3 fibroblasts were grown in Dulbecco's modified Eagle's medium (DMEM) supplemented with 10% (v/v) heat-inactivated fetal calf serum, 2 mM L-glutamine, 100 units/ml penicillin and 24 μg/ml gentamicin. Cells were incubated at 37° C. in a humidified atmosphere at 5% CO2 and 95% air.
Prostaglandin E2 (PGE2) measurement. 3T3 cells (1.5×10^5 in 100 μl in complete DMEM culture medium) were incubated overnight at 37° C. (5% CO2) in 96-well microtitre plates (tissue-culture grade). Then, the distinct agents were added in 100 μl complete DMEM culture medium for 20 min at 37° C. After washing thoroughly the cells with PBS, cells were lysed and intracellular PGE2 was measured using an enzyme immunoassay kit (Amersham Pharmacia Biotech, Buckinghamshire, UK) following the manufacturer's instructions. Data obtained in duplicate measurements were converted into actual amounts of PGE2 using a calibration curve run in parallel with defined amounts of PGE2.

Assay [4] relates to L-selectin (CD62L). The note with it: literature value, González-Alvaro et al., J. Rheumatol., 23, 723 (1996); cited from earlier work.
Assay [5] relates to L-selectin (CD62L). Nature of the assay: Cell surface expression of L-selectin in human neutrophils (immunofluorescence flow cytometry). It is filed as cell-based. The conditions noted are these: converted from μg/ml values; read-out: IC50 for L-selectin down-regulation, corrected for molecular weight. The source says: Isolation and treatment of neutrophils.
Monoclonal antibodies. […] The antibodies are commercially available.
Immunofluorescence flow cytometry. […] Results were expressed as relative MFI (rMFI), such that
rMFI=(MFIagent×100)/MFImedium
Background fluorescence was substracted from all values.
(Flow cytometry measures light scatter and fluorescence of single cells or particles in a stream.)

In general, IC50 refers to the concentration that gives 50% inhibition.

As to `COc1ccc2c(c1)c(CC(=O)O)c(C)n2C(=O)c1ccc(Cl)cc1` [Indomethacin, reference compound], the “pg PGE2/mg (weight)” value in assay [1] (human mucosal gastric biopsies, agents 10 μM, 20 min at 37° C., Control 115 ± 26, mean ± S.D., three experiments) is 7 ± 2 pg PGE2/mg. Further, in assay [1] (normal mucosal gastric biopsies, ex vivo), the “effect on mucosal PGE2 synthesis (in words)” value was “completely blocked”. Also, the “Area (area below the curve of difference between right and left pad diameter)” value in assay [2] stood at 6.6 ± 0.92 A.U. Further, the “Inhibition of the inflammatory process” value in assay [2] (versus inflamed control) amounted to 15.3%. The “pg PGE2 (intracellular)” value in assay [3] (3T3 cells, 50 μM, 20 min at 37° C., Control 112 ± 21) was 4 ± 2 pg. Further, the “effect on PGE2 production (in words)” value in assay [3] (3T3 fibroblasts, ionomycin-induced PGE2) is listed as “almost completely inhibited”.
On to `O=C(O)COC(=O)Cc1ccccc1Nc1c(Cl)cccc1Cl` [aceclofenac, reference compound], for which the “IC50 for L-selectin down-regulation” value in the assay on L-selectin (CD62L) [4] is 5 µg/mL. Moreover, the IC50 in the assay with L-selectin (CD62L) [5] amounted to 14.1 µM.
